From PubChem BioAssay (NCI)
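1) Cells in 96-well plates. 2) Compound, 48 h, 5 concentrations. 3) Linear interpolation between surrounding doses. 4) Unreached endpoint = highest concentration. At the TGI there is no net growth.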

Assays:
Experiment in all cases: NCI-60 cell line screen, 48 h
M14 melanoma = test system: M14 melanoma
HS 578T breast = test system: HS 578T breast
A498 renal = test system: A498 renal
RPMI-8226 leukemia = test system: RPMI-8226 leukemia
LOX IMVI melanoma = test system: LOX IMVI melanoma
HOP-92 NSCLC = test system: HOP-92 NSCLC
NCI/ADR-RES ovarian = test system: NCI/ADR-RES ovarian
KM12 colon = test system: KM12 colon
XF 498 CNS = test system: XF 498 CNS
EKVX NSCLC = test system: EKVX NSCLC
COLO 205 colon = test system: COLO 205 colon
DMS 273 small cell lung = test system: DMS 273 small cell lung
DMS 114 small cell lung = test system: DMS 114 small cell lung
M19-MEL melanoma = test system: M19-MEL melanoma
HL-60(TB) leukemia = test system: HL-60(TB) leukemia
NCI-H23 lung = test system: NCI-H23 lung
DU-145 prostate = test system: DU-145 prostate
NCI-H460 lung = test system: NCI-H460 lung
SK-OV-3 ovarian = test system: SK-OV-3 ovarian
SNB-78 CNS = test system: SNB-78 CNS
SN12C renal = test system: SN12C renal
SK-MEL-5 melanoma = test system: SK-MEL-5 melanoma
SF-268 CNS = test system: SF-268 CNS
MOLT-4 leukemia = test system: MOLT-4 leukemia
OVCAR-8 ovarian = test system: OVCAR-8 ovarian
UACC-257 melanoma = test system: UACC-257 melanoma
HT29 colon = test system: HT29 colon
MALME-3M melanoma = test system: MALME-3M melanoma
IGROV1 ovarian = test system: IGROV1 ovarian
K-562 leukemia = test system: K-562 leukemia
NCI-H522 lung = test system: NCI-H522 lung
CAKI-1 renal = test system: CAKI-1 renal
KM20L2 colon = test system: KM20L2 colon
LXFL 529 NSCLC = test system: LXFL 529 NSCLC
HCT-116 colon = test system: HCT-116 colon
MDA-MB-231 breast = test system: MDA-MB-231 breast
U251 CNS = test system: U251 CNS
DLD-1 colon = test system: DLD-1 colon
HCC-2998 colon = test system: HCC-2998 colon
MDA-N = test system: MDA-N
SF-295 CNS = test system: SF-295 CNS
SW-620 colon = test system: SW-620 colon
T-47D breast = test system: T-47D breast
OVCAR-5 ovarian = test system: OVCAR-5 ovarian
OVCAR-3 ovarian = test system: OVCAR-3 ovarian
UO-31 renal = test system: UO-31 renal
786-0 renal = test system: 786-0 renal
OVCAR-4 ovarian = test system: OVCAR-4 ovarian
PC-3 prostate = test system: PC-3 prostate
HCT-15 colon = test system: HCT-15 colon
SNB-75 CNS = test system: SNB-75 CNS
HOP-18 NSCLC = test system: HOP-18 NSCLC
SF-539 CNS = test system: SF-539 CNS
UACC-62 melanoma = test system: UACC-62 melanoma
ACHN renal = test system: ACHN renal
TK-10 renal = test system: TK-10 renal
A549 NSCLC = test system: A549 NSCLC
SK-MEL-2 melanoma = test system: SK-MEL-2 melanoma
MCF7 breast = test system: MCF7 breast
SNB-19 CNS = test system: SNB-19 CNS
CCRF-CEM leukemia = test system: CCRF-CEM leukemia
SK-MEL-28 melanoma = test system: SK-MEL-28 melanoma
RXF 393 renal = test system: RXF 393 renal
NCI-H226 lung = test system: NCI-H226 lung
MDA-MB-435 = test system: MDA-MB-435
SR leukemia = test system: SR leukemia

How did the TGI (M14 melanoma) turn out when `Cc1csc2c1C(=O)c1ccsc1C2=O` was run?
Its TGI is 2.02 µM.

What about the TGI (HS 578T breast) of the same compound?
Its TGI is 4.37 µM.

What about the TGI (A498 renal) of the same compound?
Its TGI is 32.5 µM.

What about the TGI (RPMI-8226 leukemia) of the same compound?
The TGI was 20.1 µM.

What about the TGI (LOX IMVI melanoma) of the same compound?
Its TGI is 3.37 µM.

What about the TGI (HOP-92 NSCLC) of the same compound?
Its TGI is 12.5 µM.

And the TGI (NCI/ADR-RES ovarian)?
The TGI was 5.9 µM.

And the TGI (KM12 colon)?
The TGI was 11 µM.

What about the TGI (XF 498 CNS) of the same compound?
The TGI was 5.06 µM.

And the TGI (EKVX NSCLC)?
The TGI was 20 µM.

What about the TGI (COLO 205 colon) of the same compound?
Its TGI is 24.8 µM.

And the TGI (DMS 273 small cell lung)?
Its TGI is 4.45 µM.

And the TGI (DMS 114 small cell lung)?
The TGI was 3.1 µM.

And the TGI (M19-MEL melanoma)?
Its TGI is 0.339 µM.

What about the TGI (HL-60(TB) leukemia) of the same compound?
The TGI was > 30.1 µM.

And the TGI (NCI-H23 lung)?
The TGI was 2.5 µM.

And the TGI (DU-145 prostate)?
The TGI was 3.29 µM.

And the TGI (NCI-H460 lung)?
The TGI was 3.46 µM.

And the TGI (SK-OV-3 ovarian)?
Its TGI is 40.5 µM.

What about the TGI (SNB-78 CNS) of the same compound?
The TGI was 16.5 µM.

What about the TGI (SN12C renal) of the same compound?
The TGI was 4.83 µM.

And the TGI (SK-MEL-5 melanoma)?
The TGI was 1.82 µM.

What about the TGI (SF-268 CNS) of the same compound?
Its TGI is 12.1 µM.

What about the TGI (MOLT-4 leukemia) of the same compound?
Its TGI is 27.2 µM.

What about the TGI (OVCAR-8 ovarian) of the same compound?
The TGI was 11.3 µM.

And the TGI (UACC-257 melanoma)?
The TGI was 2.88 µM.

And the TGI (HT29 colon)?
Its TGI is 7.33 µM.

What about the TGI (MALME-3M melanoma) of the same compound?
The TGI was 1.07 µM.

What about the TGI (IGROV1 ovarian) of the same compound?
Its TGI is 11.8 µM.

What about the TGI (K-562 leukemia) of the same compound?
Its TGI is > 25.6 µM.

What about the TGI (NCI-H522 lung) of the same compound?
The TGI was 5.16 µM.

And the TGI (CAKI-1 renal)?
Its TGI is 34 µM.

And the TGI (KM20L2 colon)?
The TGI was 17.6 µM.

And the TGI (LXFL 529 NSCLC)?
The TGI was 13.3 µM.

And the TGI (HCT-116 colon)?
Its TGI is 4.7 µM.

And the TGI (MDA-MB-231 breast)?
Its TGI is 11 µM.

What about the TGI (U251 CNS) of the same compound?
Its TGI is 13.6 µM.

And the TGI (DLD-1 colon)?
Its TGI is 10.6 µM.

And the TGI (HCC-2998 colon)?
The TGI was 14.6 µM.

What about the TGI (MDA-N) of the same compound?
The TGI was 0.889 µM.

And the TGI (SF-295 CNS)?
The TGI was 2.99 µM.

What about the TGI (SW-620 colon) of the same compound?
Its TGI is 5.31 µM.

What about the TGI (T-47D breast) of the same compound?
The TGI was 4.99 µM.

And the TGI (OVCAR-5 ovarian)?
Its TGI is 3.46 µM.

What about the TGI (OVCAR-3 ovarian) of the same compound?
Its TGI is 5.44 µM.

And the TGI (UO-31 renal)?
The TGI was 8.85 µM.

What about the TGI (786-0 renal) of the same compound?
Its TGI is 16 µM.

What about the TGI (OVCAR-4 ovarian) of the same compound?
The TGI was 3.34 µM.

And the TGI (PC-3 prostate)?
Its TGI is 8.1 µM.

And the TGI (HCT-15 colon)?
The TGI was 3.51 µM.

And the TGI (SNB-75 CNS)?
Its TGI is 3.51 µM.

What about the TGI (HOP-18 NSCLC) of the same compound?
The TGI was 3.73 µM.

And the TGI (SF-539 CNS)?
The TGI was 3.93 µM.

What about the TGI (UACC-62 melanoma) of the same compound?
The TGI was 3.07 µM.

What about the TGI (ACHN renal) of the same compound?
The TGI was 10.7 µM.

What about the TGI (TK-10 renal) of the same compound?
The TGI was 35.2 µM.

What about the TGI (A549 NSCLC) of the same compound?
Its TGI is 3.55 µM.

What about the TGI (SK-MEL-2 melanoma) of the same compound?
The TGI was 4.51 µM.

And the TGI (MCF7 breast)?
The TGI was 2.98 µM.

And the TGI (SNB-19 CNS)?
Its TGI is 9.98 µM.

And the TGI (CCRF-CEM leukemia)?
The TGI was > 100 µM.

And the TGI (SK-MEL-28 melanoma)?
Its TGI is 2.95 µM.

And the TGI (RXF 393 renal)?
Its TGI is 11.8 µM.

And the TGI (NCI-H226 lung)?
The TGI was 23.4 µM.

And the TGI (MDA-MB-435)?
The TGI was 0.447 µM.

And the TGI (SR leukemia)?
The TGI was > 45 µM.
